In patent publication US11801242B2, “Compositions and methods for adjuvant cancer therapeutics” (DUKE UNIVERSITY, priority 2018, dated 2023):

Experiments:
Rev1^+/+ MEF cells = assay: Clonogenic survival assay; assay type: cell-based, mouse; details: RE01 1.5 μM + cisplatin 0.5 μM vs cisplatin alone
Experimental: 300 cells were plated in triplicate in 6-well plates for 24 hours. Cisplatin (cis-diammineplatinum(II) dichloride, Sigma-Aldrich) was added to relevant wells for 24 hours. All plates were incubated at 37° C. for 24 hours. Media were changed the next day and in fresh media RE01 (at 1.5 μM concentration) was added to untreated or cisplatin-treated cells for another 24 hours. Media were changed at the end of these combination treatments, and cells were allowed to recover for 7 days. To stain the resulting colonies, media were aspirated and the fixative (50% methanol and 10% glacial acetic acid) was added for 10 minutes, followed by the addition of 0.02% Coomassie brilliant blue R-250 stain (ThermoFisher) in methanol: acetic acid: water in a ratio of 46.5:7:46.5 (v/v/v). Colonies that stained blue and contained at least 40 cells were counted. Relative cell survival or colony formation was calculated by dividing colony counts from treated samples by the DMSO or untreated controls.

[1] = target: T1, chimeric REV1 CTD protein (Mus musculus, UniProt Q920Q2); assay: Isothermal titration calorimetry; assay type: binding; details: 25° C.
T1 construct: the mouse REV1 CTD (F1150-T1249); His10-GB1 (TEV site) (N, cleaved yes); made in house; host or cells: E. coli BL21 Star (DE3)
T1 sequence (Q920Q2 1150-1249): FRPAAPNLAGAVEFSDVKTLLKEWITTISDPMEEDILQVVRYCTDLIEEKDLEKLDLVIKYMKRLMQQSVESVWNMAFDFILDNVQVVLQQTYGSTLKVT
Experimental: Isothermal titration calorimetry measurements were carried out using a MicroCal VP-ITC instrument at 25° C., with the chimeric REV1 CTD protein (300 μM) in the syringe and compound (15 μM) in the cell. Compounds were initially dissolved in 50% MPD. Protein and compound samples were diluted in a buffer containing 50 mM HEPES pH 7.5, 50 mM KCl, 2 mM TCEP, 2% DMSO and 0.1% MPD. Microcal Origin 7 software was used to analyze the data.

[2] = target: T2, REV1 CTD-REV7/3 interaction (Mus musculus, UniProt Q920Q2); assay: AlphaScreen assay, inhibition of the REV1 CTD-REV7/3 interaction; assay type: binding; details: fitting of the inhibition curve, inhibitor 0-25 μM, n=3
T2 construct: fused on or other part: FLAG tag at the N-terminus (after the TEV site; His10-GB1 solubility tag cleaved off); di-glycine linker between mouse POL kappa RIR K564-N577 and the REV1 CTD; Q9QUG2 (DNA polymerase kappa)
T2 sequence (Q920Q2 whole entry, looked up, the tested form may be a part): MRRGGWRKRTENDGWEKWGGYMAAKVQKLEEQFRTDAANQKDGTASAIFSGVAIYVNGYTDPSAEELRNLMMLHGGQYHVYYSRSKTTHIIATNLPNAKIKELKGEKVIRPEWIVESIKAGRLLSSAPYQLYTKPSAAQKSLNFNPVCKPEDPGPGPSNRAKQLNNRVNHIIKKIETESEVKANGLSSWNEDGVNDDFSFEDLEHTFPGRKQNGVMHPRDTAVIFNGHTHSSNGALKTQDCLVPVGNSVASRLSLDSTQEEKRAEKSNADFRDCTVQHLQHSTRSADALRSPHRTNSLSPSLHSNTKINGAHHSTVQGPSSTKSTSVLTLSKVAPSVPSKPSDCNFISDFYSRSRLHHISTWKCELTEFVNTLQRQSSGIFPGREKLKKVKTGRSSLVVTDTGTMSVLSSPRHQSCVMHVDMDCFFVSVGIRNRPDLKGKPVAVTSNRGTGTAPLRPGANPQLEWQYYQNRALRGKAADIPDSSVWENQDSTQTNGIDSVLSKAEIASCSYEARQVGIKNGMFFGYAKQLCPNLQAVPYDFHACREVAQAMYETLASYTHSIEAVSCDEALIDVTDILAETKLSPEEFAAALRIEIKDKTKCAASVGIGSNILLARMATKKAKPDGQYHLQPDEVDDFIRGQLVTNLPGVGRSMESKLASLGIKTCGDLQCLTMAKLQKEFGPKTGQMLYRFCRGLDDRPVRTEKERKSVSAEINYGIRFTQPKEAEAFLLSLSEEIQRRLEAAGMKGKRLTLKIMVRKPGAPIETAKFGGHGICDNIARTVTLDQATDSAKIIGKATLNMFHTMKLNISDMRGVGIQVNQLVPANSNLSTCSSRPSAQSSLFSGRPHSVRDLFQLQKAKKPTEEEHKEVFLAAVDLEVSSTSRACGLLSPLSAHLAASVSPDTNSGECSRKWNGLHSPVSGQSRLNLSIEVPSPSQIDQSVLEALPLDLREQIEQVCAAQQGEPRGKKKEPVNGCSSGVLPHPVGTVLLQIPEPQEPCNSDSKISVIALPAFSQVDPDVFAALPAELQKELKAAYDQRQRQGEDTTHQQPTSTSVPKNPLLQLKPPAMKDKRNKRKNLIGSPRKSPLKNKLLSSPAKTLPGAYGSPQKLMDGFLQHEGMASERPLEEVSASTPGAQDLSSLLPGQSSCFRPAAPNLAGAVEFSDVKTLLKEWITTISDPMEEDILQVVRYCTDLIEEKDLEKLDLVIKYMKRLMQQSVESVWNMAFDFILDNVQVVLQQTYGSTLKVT
Experimental: The FLAG-tagged mouse POL κ-REV1 CTD was diluted in PBS containing 1 mM Tris(2-carboxyethyl)phosphine (TCEP) and 0.005% Tween-20 at a final protein concentration of 1 nM and transferred to individual wells of a 96-well, half-area, white opaque plate (PerkinElmer). Serially diluted RE01 stock solutions in 50% DMSO were added to the wells to yield final inhibitor concentrations of 0-25 μM in 2% DMSO. After 30 min incubation, anti-FLAG Donor Beads (PerkinElmer) were added to a final concentration of 20 ng/μL to individual wells and incubated for an hour. His8-tagged mouse REV7/3 was subsequently added to the reaction mixture to a final concentration of 10 nM and incubated for 30 min. Anti-His Acceptor Beads (PerkinElmer) were added to a final concentration of 20 ng/μL and incubated for an hour.
Error bars represent standard error (n=3).

A375 xenograft tumors = assay: Murine xenograft tumor model; assay type: in vivo, mouse; details: co-administration RE01 1.6 mg/kg with cisplatin 1 mg/kg, intratumoral, twice per week for 5 weeks
Experimental: NCRNU-F (nude) female, 6-8-week-old mice were divided into 4 groups (with 6 animals per group) for saline, cisplatin alone, RE01 alone, and cisplatin and RE01 combination treatments. Three million A375 cells mixed in matrigel (Corning) were injected into each flank of the 6 mice to generate 10-12 xenograft tumors per treatment group. After the tumors grew to a total tumor volume of at least 100 mm^3, the drugs (saline, cisplatin alone, RE01 alone, and cisplatin and RE01 combination) with a total volume of 100 μL per injection were injected directly into the tumor. Treatments were carried out twice per week for 5 weeks. On the dosing day, tumors were first measured with calipers, weights were recorded, and then the drugs would be injected directly into the tumors. The mice were sedated with isofluorane prior to measurements and treatments.
The drugs were formulated in 10% EtOH, 40% PEG400, and 50% saline for all the four types of treatments. Cisplatin was injected at a dose of 1 mg/kg per animal and RE01 was administered at a 1.6 mg/kg per animal. In the combination treatment of cisplatin and RE01, the same doses of 1 mg/kg and 1.6 mg/kg respectively per animal were administered. Tumor volumes were calculated by the formula (W^2×L)/2 as described previously.

protein-to-ligand stoichiometry [1]: 2.04±0.03
Kd ([1]; read-out: dissociation constant (Kd)): 420 ± 110 nM
IC50 [2]: 780 nM
Compound: CC(C)CC(=O)c1c(Nc2ccc(Cl)cc2Cl)[nH]c2c(Cl)ccc([N+](=O)[O-])c2c1=O [RE01, 8-chloro-2-((2,4-dichlorophenyl)amino)-3-(3-methylbutanoyl)-5-nitroquinolin-4(1H)-one]
colony forming ability (Rev1^+/+ MEF cells): significantly reduced
growth of xenograft human melanomas (A375 xenograft tumors): strikingly suppresses
